# US9388419B2 (The Regents of the University of Colorado, a body corporate, priority 2009, dated 2016)
# Read-outs that look alike come from different tables or passages of the source.
# Tests used:
# E. coli = format: cell-based, Escherichia coli; details: aerobic
# Protocol: For MIC evaluations, the final results are expressed in chemical agent concentrations determined by analysis of the stock solution by HPLC (i.e., see Subsection Mb).
# The minimum inhibitory concentration (MIC) was determined aerobically in a 96 well-plate format. […] Media supplements were added according to levels reported in the Supplements Table, where specified. Overnight cultures of strains were grown in triplicate in 5 mL LB (with antibiotic where appropriate). A 1% (v/v) inoculum was introduced into a 5 ml culture of M9 minimal media.
# [1] = test system: Yeast strains (S288C background); format: cell-based, Saccharomyces cerevisiae
# Protocol: The minimum inhibitory concentration (MIC) was determined anaerobically in a 96 well-plate format. […] A 1% (v/v) inoculum was introduced into a 5 ml culture of SD minimal media without vitamins. After the cells reached mid-exponential phase, the culture was diluted to an OD600 of 0.200. The cells were further diluted 1:5 and a 10 μL aliquot was used to inoculate each well of a 96 well plate (˜10^4 cells per well) to total volume of 100 uL. […] Plates were incubated for 72 hours at 30 C. […] Plates were sealed in biobag anaerobic chambers that contained gas generators for anaerobic conditions and incubated for 72 hours at 30 C.
# E. coli Mach1-T1 = experiment: Minimum inhibitory concentration (MIC) of 3-HP, microaerobic, 96 well-plate, MOPS minimal media; format: cell-based, Escherichia coli; details: Mach1-T1 with feedback resistant aroH mutant plasmid, MOPS minimal media
# Protocol: Overnight cultures of strains were grown in 5 ml LB (with antibiotic where appropriate). A 1 v/v % was used to inoculate a 15 ml conical tube filled to the top with MOPS minimal media and capped. After the cells reached mid exponential phase, the culture was diluted to an OD600 of 0.200. The cells were further diluted 1:20 and a 10 ul aliquot was used to inoculate each well (˜10^4 cells per well).
# The minimum inhibitory concentration (MIC) was determined microaerobically in a 96 well-plate format. Overnight cultures of strains were grown in 5 mL LB (with antibiotic where appropriate). A 1% (v/v) inoculum was introduced into a 15 ml culture of MOPS minimal media. After the cells reached mid-exponential phase, the culture was diluted to an OD600 of 0.200. The cells were further diluted 1:20 and a 10 μL aliquot was used to inoculate each well of a 96 well plate (˜10^4 cells per well).
# [2] = test system: wild-type E. coli BW25113; experiment: Toleragram / OD600 / doublings at 3HP 0-50 g/L, E. coli anaerobic; format: cell-based, Escherichia coli; details: control E. coli, anaerobic conditions, 24 hours
# Protocol: Overnight cultures of wild-type E. coli BW25113 were grown in triplicate in 5 mL standard LB medium. 100 uL of overnight cultures were used to inoculate triplicate 5 mL samples of M9 minimal medium+3HP, containing 47.7 mM Na2HPO4, 22 mM KH2PO4, 8.6 mM NaCl, 18.7 mM NH4Cl, 2 mM MgSO4, 0.1 mM CaCl2, and 0.4% glucose, with 3HP concentrations ranging from 0-50 g/L. Starting OD600 ranged from 0.02-0.08. Cultures were sparged with CO2 for 10 seconds, sealed, and incubated at 37 C for about 24 hours. OD600 was recorded every 1-2 hours during the first 8 hours with a final OD600 recorded at about 24 hours. For each data point the sample was opened, sampled, re-sparged with CO2, and sealed once again. Maximum specific growth rates (μmax) were calculated by determining the optimal fit of exponential trend lines with OD data for the evaluation period. Specific changes in OD600 over approximately 24 hours (Δ24hrOD600) were calculated as the difference in t=24 hr and t=0 optical density, Δ24hrOD600=(ODt=24)−(ODt=0). Specific number of doublings (Nd) were calculated by solving for N in the equation 2^N=(ODt=24)/(ODt=0).
smiles,measurement,setting,value
"O=C(O)CCO [3-HP, 3-hydroxypropionic acid]",% Increase Over Control,"E. coli; strain BX_00301.0: BW25113 wild type + pSmart-LC-Kan-folA-C1, M9 + Kan 20 μg/mL",40%
same,% Increase Over Control,"E. coli; strain BX_00302.0: BW25113 wild type + pSmart-LC-Kan-folA-ORF, M9 + Kan 20 μg/mL",20%
same,% Increase Over Control,"E. coli; strain BX_00304.0: BW25113 wild type + pSmart-LC-Kan-menA-ORF, M9 + Kan 20 μg/mL",40%
same,% Increase Over Control,"E. coli; strain BX_00305.0: BW25113 wild type + pSmart-LC-Kan-pheA-C1, M9 + Kan 20 μg/mL",40%
same,% Increase Over Control,"E. coli; strain BX_00307.0: BW25113 wild type + pSmart-LC-Kan-tyrA-C1, M9 + Kan 20 μg/mL",40%
same,% Increase Over Control,"E. coli; strain BX_00309.0: BW25113 wild type + pSmart-LC-Kan-cynTS, M9 + Kan 20 μg/mL",40%
same,% Increase Over Control,"E. coli; strain BX_00310.0: BW25113 wild type + pSmart-LC-Kan-glyA, M9 + Kan 20 μg/mL",40%
same,% Increase Over Control,"E. coli; strain BX_00312.0: BW25113 wild type + pSmart-LC-Kan-serA, M9 + Kan 20 μg/mL",40%
same,% Increase Over Control,"E. coli; strain BX_00313.0: BW25113 wild type + pSmart-LC-Kan-folD, M9 + Kan 20 μg/mL",20%
same,% Increase Over Control,"E. coli; strain BX_00314.0: BW25113 wild type + pSmart-LC-Kan-aroE, M9 + Kan 20 μg/mL",40%
same,% Increase Over Control,"E. coli; strain BX_00315.0: BW25113 wild type + pSmart-LC-Kan-aroKB C1, M9 + Kan 20 μg/mL",40%
same,% Increase Over Control,"E. coli; strain BX_00317.0: BW25113 wild type + pSmart-LC-Kan-ilvA operon, M9 + Kan 20 μg/mL",40%
same,% Increase Over Control,"E. coli; strain BX_00318.0: BW25113 wild type + pSmart-LC-Kan-cysM, M9 + Kan 20 μg/mL",40%
same,% Increase Over Control,"E. coli; strain BX_00319.0: BW25113 wild type + pK223-aroH, M9 + Amp 100 μg/mL + 1 mM IPTG",50%
same,% Increase Over Control,"E. coli; strain BX_00321.0: BW25113 wild type + pK223-ct-his-thrA, M9 + Amp 100 μg/mL + 1 mM IPTG",75%
same,% Increase Over Control,"E. coli; strain BX_00322.0: BW25113 wild type + pJ61-speFED, M9 + Kan 20 μg/mL",40%
same,% Increase Over Control,"E. coli; strain BX_00323.0: BW25113 wild type + pJ61-aroG, M9 + Kan 20 μg/mL",40%
same,% Increase Over Control,"E. coli; strain BX_00324.0: BW25113 wild type + pJ61-thrA, M9 + Kan 20 μg/mL",40%
same,% Increase Over Control,"E. coli; strain BX_00325.0: BW25113 wild type + pJ61-asd, M9 + Kan 20 μg/mL",40%
same,% Increase Over Control,"E. coli; strain BX_00326.0: BW25113 wild type + pJ61-ilvA, M9 + Kan 20 μg/mL",40%
same,% Increase Over Control,"E. coli; strain BX_00327.0: BW25113 wild type + pJ61-cysM, M9 + Kan 20 μg/mL",40%
same,% Increase Over Control,"E. coli; strain BX_00334.0: BW25113 wild type + pSmart-HC-Amp-cadA, M9 + Amp 100 μg/mL",60%
same,% Increase Over Control,"E. coli; strain BX_00335.0: BW25113 wild type + pSmart-HC-Amp-prs, M9 + Amp 100 μg/mL",40%
same,% Increase Over Control,"E. coli; strain BX_00336.0: BW25113 wild type + pSmart-HC-Amp-nrdAB, M9 + Amp 100 μg/mL",40%
same,% Increase Over Control,"E. coli; strain BX_00337.0: BW25113 wild type + pSmart-HC-Amp-nrdEF, M9 + Amp 100 μg/mL",40%
same,% Increase Over Control,"E. coli; strain BX_00352.0: BW25113 wild type + pSmart-LC-Kan-metC C1, M9 + Amp 100 μg/mL",40%
same,% Increase Over Control,"E. coli; strain BX_00353.0: BW25113 wild type + pSmart-HC-Amp-metC, M9 + Amp 100 μg/mL",80%
same,% Increase Over Control,"E. coli; strain BX_00354.0: BW25113 wild type + pSmart-HC-Amp-cynTS, M9 + Amp 100 μg/mL",80%
same,% Increase Over Control,"E. coli; strain BX_00356.0: BW25113 wild type + pSmart-HC-Amp-LysA, M9 + Amp 100 μg/mL",20%
same,% Increase Over Control,"E. coli; strain BX_00357.0: BW25113 wild type + pKK223-aroH*445, M9 + Amp 100 μg/mL + 1 mM IPTG",50%
same,% Increase Over Control,"E. coli; strain BX_00358.0: BW25113 wild type + pKK223-aroH*447, M9 + Amp 100 μg/mL + 1 mM IPTG",75%
same,% Increase Over Control,"E. coli; strain BX_00359.0: BW25113 wild type + pKK223-aroH*457, M9 + Amp 100 μg/mL + 1 mM IPTG",75%
same,% Increase Over Control,"E. coli; strain BX_00361.0: BW25113 wild type + pACYC177 (Kan only)-cynTS, M9 + Kan 20 μg/mL",40%
same,% Increase Over Control,"E. coli; strain BX_00362.0: BW25113 wild type + pACYC177 (Kan only)-aroH, M9 + Kan 20 μg/mL + 1 mM IPTG",20%
same,% Increase Over Control,"E. coli; strain BX_00363.0: BW25113 wild type + pACYC177 (kan only)-speB, M9 + Kan 20 μg/mL",40%
same,% Increase Over Control,"E. coli; strain BX_00364.0: BW25113 wild type + pACYC177 (Kan only)-metE (Version1) (SS090608_13), M9 + Kan 20 μg/mL + 1 mM IPTG",40%
same,% Increase Over Control,"E. coli; strain BX_00365.0: BW25113 wild type + pACYC177 (Kan only)-metC (Version1) (SS090608_17), M9 + Kan 20 μg/mL",40%
same,% Increase Over Control,"E. coli; strain BX_00368.0: BW25113 wild type + pBT-3-cynTS, M9 + Cm (20 μg/mL)",20%
same,% Increase Over Control,"E. coli; strain BX_00370.0: BW25113 wild type + pBT-3-speB, M9 + Cm (20 μg/mL)",20%
same,% Increase Over Control,"[1]; strain YX-CJR-005 (pYes2.1-Met6) versus YX-CJR-001, anaerobic",50%
same,% Increase Over Control,"[1]; strain YX-CJR-008 (pyes2.1-ILV1) versus YX-CJR-001, anaerobic",50%
same,"improvement in MIC of 3-HP, cells comprising the aroH mutant vs control",E. coli Mach1-T1,40%
same,cell density response to 3-HP compared with aerobic condition,[2],relatively sharper and earlier drop
